These results are taken from article PMC12750277, “Combining Experimental Assays and Molecular Modeling to Evaluate Monosubstituted Cinnamic Acid Derivatives as PDE4B Inhibitors” (ACS Omega, 2025).

Values joined by “and” are separate entries in the source; they are usually repeats but may differ in a detail not shown here. Equal entries are not always repeated. Where two headings read alike, the source gives them in different places.

The subject of assay [1] is TNF-α release in human blood mononuclear cells. Nature of the assay: LPS-stimulated TNF-α release in PBMCs (TR-FRET). The class given is cell-based. To be noted: PBMC, LPS stimulation 18 h, read-out: TNFα IC50. How it is done:
The blood was mixed with saline at a ratio of 1:1, and the peripheral blood mononuclear cells (PBMCs) were isolated from buffy coats using Lymphoprep tubes. The PBMCs were suspended in RPMI 1640 with 0.5% human serum albumin, pen/strep, and 2 mM L-glutamine at 5 × 10^5 cells/mL. The cells were preincubated with the test compounds in 96-well plates for 30 min and stimulated for 18 h with […] lipopolysaccharide. TNF-α concentration in the supernatants was measured by homogeneous time-resolved fluorescence resonance (TR-FRET). The assay was quantified by measuring fluorescence at 665 nm (proportional to TNF-α concentration) and 620 nm (control). Results are expressed as IC50 values (μM).
The inhibitory effect of the 19 compounds on the release of HM-TNF-α correlated well with their potency in inhibiting PDE4. […] The well-established correlation between PDE4 inhibition and TNF-α suppression is mechanistically explained by the following pathway: By inhibiting PDE4, these compounds elevate intracellular cAMP levels, which in turn activates protein kinase A (PKA). PKA phosphorylates and inhibits key transcription factors like NF-κB, leading to the downregulation of pro-inflammatory cytokines such as TNF-α. This mechanism provides a solid foundation for understanding the anti-inflammatory effects observed in our study.
On the technique in general: In TR-FRET formats the signal depends on donor and acceptor labels being close together.

The target in a further assay is PDE4B (Homo sapiens, UniProt Q07343). Nature of the assay: Human PDE4 enzyme inhibition assay ([3H]-cAMP), PDE4B. The class given is biochemical. How it is done:
(§1) A standard procedure for PDE testing was carried out according to the previously mentioned protocol. , The enzyme was prepared from U937 cells which were derived from human monocytes, and was stored at −20 °C after preparation. Measurement of PDE4 activity was performed using this stored enzyme after it was diluted with distilled water containing bovine serum albumin. The substrate solution was prepared by adding [3H]-cAMP (300,000 dpm (5000 Bq)/ assay) and […] solution to 100 mmol/L Tris-HCl (pH 8.0) containing 5 mmol/L ethylene glycol-bis (β-aminoethyl ether) and O,O′-bis(2-aminoethyl)-ethylene glycol-N,N,N′,N′-tetraacetic acid. The substrate solution was mixed with the enzyme solution containing a test compound dissolved in DMSO, and incubation was done for 30 min at 30 °C.

The next assay deals with PDE4D (Homo sapiens, UniProt Q08499). The assay is described as follows: Human PDE4 enzyme inhibition assay ([3H]-cAMP), PDE4D. Type of assay: biochemical. How it is done: as §1
Sequence of PDE4D (Q08499 386-715 limits assumed): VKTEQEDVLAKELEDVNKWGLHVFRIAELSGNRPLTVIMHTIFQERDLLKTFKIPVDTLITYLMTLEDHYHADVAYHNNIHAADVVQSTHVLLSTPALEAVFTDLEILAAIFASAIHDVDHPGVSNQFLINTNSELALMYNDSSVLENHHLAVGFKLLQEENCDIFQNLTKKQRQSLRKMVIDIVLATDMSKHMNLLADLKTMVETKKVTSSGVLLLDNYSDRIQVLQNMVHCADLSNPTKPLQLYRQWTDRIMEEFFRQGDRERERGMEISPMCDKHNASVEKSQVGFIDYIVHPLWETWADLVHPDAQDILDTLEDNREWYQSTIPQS
The subject of assay [2] is LPS induced neutrophilia (neutrophil influx in BALF). The assay is described as follows: LPS induced neutrophilia model for asthma and COPD. Type of assay: in vivo. To be noted: Sprague–Dawley rats (n = 6), 10 mg/kg po, BAL 6 h after LPS. As for the experimental part:
Neutrophilia was induced in Sprague–Dawley rats by lipopolysaccharide (LPS) following the established protocol. Male Sprague–Dawley rats were acclimatized to laboratory conditions for 1 week prior to the experiment. According to the body weight, the rats were distributed to various groups randomly. Except for the normal group, all the rats were exposed to 100 μg/mL lipopolysaccharide (E. coli, LPS: B4 from Sigma) for 40 min. The rats were dosed with the test compound suspended in the vehicle containing 0.25% carboxymethyl cellulose before half an hour of LPS exposure. Bronchoalveolar lavage (BAL) was performed 6 h after LPS exposure, total cell count and differential leukocyte count (DLC) were performed and compared with control and the standard drug.
In vivo experiments were conducted using an LPS-induced sepsis model to measure TNF-α inhibition in female Swiss Albino mice and to assess neutrophilia inhibition for asthma and COPD in male Sprague–Dawley rats.

The test system of a further assay is LPS induced TNF-α. Nature of the assay: LPS induced sepsis for measurement of TNF-α inhibition in mice. The class given is in vivo. To be noted: Swiss Albino mice (n = 6), 10 mg/kg po, serum 90 min after LPS. As for the experimental part: The sepsis model in mice was induced using lipopolysaccharide (LPS) according to the methods described in the literature. Female Swiss albino mice were selected according to the body weights, which were equivalent within each group. The mice were fasted for 20 h with free access to water and dosed for oral administration (po) with the test compounds suspended in vehicle containing 0.5% Tween 80 in 0.25% sodium salt of carboxymethylcellulose. The control mice received the vehicle alone. After 30 min of oral dosing, the mice were injected intraperitoneally with 500 μg of lipopolysaccharide (Escherichia coli, LPS: B4 from Sigma) in phosphate buffer. Then the mice were bled via retro-orbital sinus puncture after 90 min of LPS administration. Serum samples were collected by centrifuging the blood samples at 4000 rpm for 20 min, which were stored overnight at 4 °C. The serum samples were then immediately checked for TNF-α levels using commercial mouse TNF-α ELISA kit (Amersham Biosciences) and assay was carried out following the manufacturer’s instruction.
In vivo experiments were conducted using an LPS-induced sepsis model to measure TNF-α inhibition in female Swiss Albino mice and to assess neutrophilia inhibition for asthma and COPD in male Sprague–Dawley rats. Details such as the oral dosages and the number of animals used, along with the percentage inhibition of neutrophilia calculated from the DLC, are provided in Table . […] These findings are particularly relevant in the context of COPD pathophysiology, where both TNF-α-driven inflammation and neutrophilic influx are well-established key drivers of tissue damage and disease progression.

For assay [3], the system named is tumor necrosis factor-α (TNF-α) in bronchoalveolar lavage fluid. Particulars: oral administration, experimental COPD mice; cited from earlier work.
[4] abbreviates: PDE4B IC50, enzyme prepared from U937 cells, average of at least three assays.
[5] abbreviates: PDE4B pIC50 (Experimental), log(1/IC50), IC50 in μM.
The mark [6] stands for this setting: enzyme prepared from U937 cells, average of at least three assays, read-out: PDE4D IC50.
[7] abbreviates: enzyme prepared from U937 cells, average of at least three assays, read-out: PDE4B IC50.
Where [8] appears, read: log(1/IC50), IC50 in μM, read-out: PDE4B pIC50 (Experimental) (converted).
Setting [9] is: PDE4B, as listed in Table S4 (rounded), read-out: IC50.

Sequence of PDE4B (Q07343 249-736 limits assumed): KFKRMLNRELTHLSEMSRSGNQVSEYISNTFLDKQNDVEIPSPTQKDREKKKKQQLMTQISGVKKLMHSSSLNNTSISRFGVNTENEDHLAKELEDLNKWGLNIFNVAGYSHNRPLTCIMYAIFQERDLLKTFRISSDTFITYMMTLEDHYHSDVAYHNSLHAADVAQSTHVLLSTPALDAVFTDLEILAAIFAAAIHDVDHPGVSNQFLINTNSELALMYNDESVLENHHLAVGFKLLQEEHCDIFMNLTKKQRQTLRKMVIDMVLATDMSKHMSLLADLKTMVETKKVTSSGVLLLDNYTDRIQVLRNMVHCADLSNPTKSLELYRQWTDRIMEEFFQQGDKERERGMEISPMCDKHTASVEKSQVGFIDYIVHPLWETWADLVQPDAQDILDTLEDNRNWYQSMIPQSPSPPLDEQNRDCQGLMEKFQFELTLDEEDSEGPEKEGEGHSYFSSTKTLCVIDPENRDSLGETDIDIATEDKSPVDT

Regarding `O=C(O)/C=C/c1ccccc1` [Compound 1, trans-cinnamic acid], the values for the IC50 (in assay [1]; on PDE4B (setting [4]); against PDE4B (setting [5])) were 198 ± 8.2 µM, 90.3 ± 3.8 µM and 91.2 µM, respectively.

On to `O=C(O)/C=C/c1ccccc1O` [Compound 2, ortho-coumaric acid], for which the IC50 on PDE4D (setting [6]) was 39.6 ± 1.7 µM; in assay [1] it was 40.4 ± 0.8 µM; on PDE4B (setting [7]) it was 41.4 ± 1.3 µM; at PDE4B (setting [8]) it was 41.7 µM.

For `O=C(O)/C=C/c1cccc(O)c1` [Compound 3, meta-coumaric acid], the IC50 on PDE4D (setting [6]) was 32.7 ± 2.1 µM; in assay [1], 37.8 ± 1.9 µM; on PDE4B (setting [7]), 28.4 ± 1.4 µM; on PDE4B (setting [8]) it was 28.2 µM.

Regarding `O=C(O)/C=C/c1ccc(O)cc1` [Compound 4, p-coumaric acid], the “LPS induced neutrophilia (% inhibition)” value in assay [2] was 32.5% and 32.5 ± 0.33%. Besides, the IC50 against PDE4D is 2.3 ± 0.7 µM; in assay [1] it was 21.5 ± 1.3 µM; against PDE4B (setting [4]), 2.2 ± 0.8 µM; against PDE4B (setting [5]), 2.19 µM. For the same compound, the “TNF-α inhibition (%)” value in the assay with LPS induced TNF-α was 41.1% and 41.1 ± 0.65%.

With `COc1ccccc1/C=C/C(=O)O` [Compound 5, trans-2-methoxycinnamic acid], the IC50 at PDE4D (setting [6]) was 91.4 ± 2.9 µM; in assay [1], 64.2 ± 3.1 µM; on PDE4B (setting [7]), 51.1 ± 1.9 µM; on PDE4B (setting [8]) it was 51.3 µM.

`COc1cccc(/C=C/C(=O)O)c1` [Compound 6, trans-3-methoxycinnamic acid]: the IC50 on PDE4D (setting [6]) was 65.6 ± 1.8 µM; in assay [1], 58.3 ± 2 µM; on PDE4B (setting [7]), 32.8 ± 1.1 µM; on PDE4B (setting [8]), 33.1 µM.

As to `COc1ccc(/C=C/C(=O)O)cc1` [Compound 7, trans-4-methoxycinnamic acid], the “LPS induced neutrophilia (% inhibition)” value in assay [2] was 24.2% and 24.2 ± 0.52%. The IC50 is 45.6 ± 1.8 µM on PDE4D (setting [6]), 30.8 ± 1.6 µM in assay [1], 8.2 ± 1.2 µM on PDE4B (setting [7]) and 8.13 µM at PDE4B (setting [8]). Besides, the “TNF-α inhibition (%)” value with LPS induced TNF-α is 29.6% and 29.6 ± 0.36%. At PDE4B (compared with rolipram), the “selectivity for PDE4B over PDE4D” value is recorded as “higher selectivity ratios for PDE4B over PDE4D than rolipram”.

Turning to `Cc1ccccc1/C=C/C(=O)O` [Compound 8, trans-2-methylcinnamic acid], the IC50 in assay [1] is 169 ± 5.1 µM; at PDE4B (setting [9]), 136 µM; at PDE4B (setting [7]) it was 137 ± 5.8 µM; on PDE4B (setting [8]), 135 µM.

As for `Cc1cccc(/C=C/C(=O)O)c1` [Compound 9, trans-3-methylcinnamic acid], the IC50 in assay [1] was 121 ± 5.7 µM; on PDE4B (setting [9]), 102 µM; on PDE4B (setting [7]), 102 ± 4.1 µM; on PDE4B (setting [8]) it was 102 µM.

`Cc1ccc(/C=C/C(=O)O)cc1` [Compound 10, trans-4-methylcinnamic acid]: the IC50 in assay [1] was 99.2 ± 4.1 µM; at PDE4B (setting [9]), 85 µM; on PDE4B (setting [7]), 85.3 ± 3.8 µM; on PDE4B (setting [8]), 85.1 µM.

Take `O=C(O)/C=C/c1ccccc1Cl` [Compound 11, trans-2-chlorocinnamic acid]: the IC50 was 89.6 ± 3.7 µM on PDE4D (setting [6]); 128 ± 5.8 µM in assay [1]; 82 µM at PDE4B (setting [9]); 82.1 ± 3.9 µM on PDE4B (setting [7]); 81.3 µM at PDE4B (setting [8]).

As for `O=C(O)/C=C/c1cccc(Cl)c1` [Compound 12, trans-3-chlorocinnamic acid], the IC50 is 62.7 ± 2.8 µM on PDE4D (setting [6]); 119 ± 4.8 µM in assay [1]; 63 µM on PDE4B (setting [9]); 63.2 ± 3.4 µM at PDE4B (setting [7]); 63.1 µM on PDE4B (setting [8]).

`O=C(O)/C=C/c1ccc(Cl)cc1` [Compound 13, trans-4-chlorocinnamic acid]: the IC50 at PDE4D (setting [6]) was 57.3 ± 2.4 µM; in assay [1] it was 89.7 ± 3.2 µM; at PDE4B (setting [9]) it was 44 µM; at PDE4B (setting [7]) it was 44.5 ± 2.2 µM; on PDE4B (setting [8]) it was 43.7 µM.

As to `O=C(O)/C=C/c1ccc([N+](=O)[O-])cc1` [Compound 14, trans-4-nitrocinnamic acid], the IC50 in assay [1] is 96.5 ± 3 µM; on PDE4B (setting [9]) it was 111 µM; on PDE4B (setting [7]), 112 ± 6.4 µM; at PDE4B (setting [8]), 112 µM.

For `O=Cc1ccc(/C=C/C(=O)O)cc1` [Compound 15, trans-4-formylcinnamic acid], the IC50 was 98.5 ± 2.8 µM in assay [1], 101 µM at PDE4B (setting [9]), 101 ± 5.4 µM at PDE4B (setting [7]) and 100 µM on PDE4B (setting [8]).

Take `O=C(O)/C=C/c1ccc(F)cc1` [Compound 16, trans-4-fluorocinnamic acid]: the IC50 at PDE4D (setting [6]) was 36.6 ± 2.1 µM; in assay [1], 65.2 ± 3.1 µM; on PDE4B (setting [9]) it was 33 µM; on PDE4B (setting [7]) it was 33.4 ± 1.5 µM; on PDE4B (setting [8]), 33.1 µM.

Consider `O=C(O)/C=C/c1ccc(Br)cc1` [Compound 17, trans-4-bromocinnamic acid], for which the IC50 in assay [1] is 125 ± 5.5 µM; at PDE4B (setting [9]), 87 µM; on PDE4B (setting [7]), 87.2 ± 3.5 µM; at PDE4B (setting [8]), 87.1 µM.

Take `CN(C)c1ccc(/C=C/C(=O)O)cc1` [Compound 18, trans-4-dimethylaminocinnamic acid]: the IC50 was 19.6 ± 1.1 µM at PDE4D (setting [6]), 65.2 ± 3.1 µM in assay [1], 33 µM on PDE4B (setting [9]) and 33.1 µM on PDE4B (setting [8]).

Turning to `O=C(O)/C=C/c1ccc(C(F)(F)F)cc1` [Compound 19, trans-4-trifluoromethylcinnamic acid], the IC50 was 118 ± 5.1 µM in assay [1], 97 µM on PDE4B (setting [9]), 97.2 ± 4.3 µM on PDE4B (setting [7]) and 97.7 µM at PDE4B (setting [8]).

Turning to `COc1ccc(C2CNC(=O)C2)cc1OC1CCCC1` (stereo not shown) [Rolipram, reference compound], the “LPS induced neutrophilia (% inhibition)” value in assay [2] is 32.8% and 32.8 ± 0.40%. Besides, the IC50 in assay [1] was found to be 18.5 ± 1 µM. Besides, the “TNF-α inhibition (%)” value in the assay with LPS induced TNF-α is 41.7% and 41.7 ± 0.78%.

For `O=C(O)C=Cc1cc(O)c(O)c(O)c1` [THCA, 3,4,5-Trihydroxycinnamic acid], the “TNF-α in bronchoalveolar lavage fluid” value in assay [3] is “significantly inhibited”.
